Assay [1] concerns SHP-77. The assay is described as follows: SHP-77 cancer cell proliferation inhibition (Cell Titer-Glo). It is filed as cell-based. As to conditions: Homo sapiens, SHP77, SHP-77 small cell lung cancer cell line, 72 hours. Here is the method:
(§1) In order to evaluate the cancer cell proliferation inhibitory activity of the compounds of the present invention, the following experiments were performed.
(§2) To evaluate the cancer cell proliferation inhibitory effect, the cell growth rate analysis was performed while culturing MDA-MB-231 cell line (Korean Cell Line Bank #30026) and MDA-MB-468 cell line as the triple-negative breast cancer cell line, and SHP-77 (ATCC #CRL-2195) as the small cell lung cancer cell line in DMEM (HyClone #SH30243) and RPMI medium (HyClone #SH3027.01), respectively. More specifically, the cell lines were each plated at 2000 cells/100 μl in each well of a 96-well flat-bottom plate (coming #3903), and then the example compounds having eleven concentrations which were diluted by ⅓ so that the final concentrations were 10.000000, 3.333333, 1.111111, 0.370370, 0.123457, 0.041152, 0.013717, 0.004572, 0.001524, 0.000508 and 0.000169 μM were treated. After 72 hours, 100 μl of Cell Titer-Glo (Promega G7573) was treated, incubated at RT for 10 minutes, and then luminescence was measured using a microplate reader. The measured luminescence degree was calculated as GI50 using Prism (version 8.2 GraphPad) software.
(§3) In the table below, the following designations were used for the evaluation of proliferation inhibitory activity.
On the technique in general: ATP-based viability assays read luminescence as a measure of living cells.

Assay [2] concerns MDA-MB-231 cell line. The assay is described as follows: MDA-MB-231 cancer cell proliferation inhibition (Cell Titer-Glo). It is filed as cell-based. To be noted: Homo sapiens, MDA-MB-231 triple-negative breast cancer cell line, 72 hours. The protocol: as §1, §2, §3
Assay [3] concerns the target T1, human GST-CLK1 (129-end) (Homo sapiens, UniProt P49759).
T1 construct: purified human GST-CLK1 (129-end, Signalchem) enzyme; GST; purchased Signalchem
The assay is described as follows: GST-CLK1 enzyme inhibition, ADP-Glo kinase assay. It is filed as biochemical. To be noted: ATP 10 uM. In a few lines: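 GST-CLK1 (129-end, 3 ng) reacted with 10 uM ATP and substrate in 40 mM Tris-HCl pH 7.4, 20 mM MgCl2, 0.5 mg/mL BSA, 50 uM DTT, 1 h at 25° C. ADP-Glo luminescence normalised to solvent control; IC50 from triplicate data.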
On the technique in general: In ADP-Glo the light output rises with the ADP produced.

Assay [4] addresses T2, human GST-DYRK1A (full length) (Homo sapiens, UniProt Q13627).
T2 construct: purified human GST-DYRK1A (full length, Thermo scientifics) enzyme; GST; purchased Thermo scientifics
The assay is described as follows: GST-DYRK1A enzyme inhibition, ADP-Glo kinase assay. It is filed as biochemical. As to conditions: read-out: DYRK1 IC50. In a few lines:
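Full-length human GST-DYRK1A (10 ng) incubated with 10 uM ATP and specific substrate for 1 h at 25° C in 40 mM Tris-HCl pH 7.4, 20 mM MgCl2, 0.5 mg/mL BSA, 50 uM DTT. ADP formation read by ADP-Glo luminescence; IC50 (nM) versus solvent control, triplicate.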

Assay [5] deals with LRRK2 (Homo sapiens, UniProt Q5S007). The assay is described as follows: LRRK2 enzyme inhibition, ADP-Glo kinase assay. It is filed as biochemical. On the set-up: purchased Invitrogen PR8604B. In a few lines: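 Purified human LRRK2 (25 ng) in 40 mM Tris-HCl pH7.4, 20 mM MgCl2, 0.5 mg/ml BSA, 50 μM DTT with 10 μM ATP and substrate ([…]), 2 h at 25° C. Final compound 50 to 0.000001024 μM, 12-point dilution. ADP-Glo luminescence vs solvent control; IC50 (nM).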

In assay [6] the target is LRRK2 (G2019S) (Homo sapiens, UniProt Q5S007, G2019S). The assay is described as follows: LRRK2 G2019S enzyme inhibition, ADP-Glo kinase assay. It is filed as biochemical. Also on record: purchased SignalChem L10-12GG. The procedure, abridged:
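Purified human LRRK2 G2019S (16 ng) with 25 μM ATP and 0.2 μg substrate, 2 h at 25° C in 40 mM Tris-HCl pH 7.4, 20 mM MgCl2, 0.5 mg/ml BSA, 50 μM DTT; compound at 12 final concentrations from 50 μM downward. ADP-Glo luminescence versus solvent control gave IC50 (nM).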

Broadly, the GI50 is the concentration giving 50% growth inhibition. High values mean less potent growth inhibition, low ones more potent growth inhibition. A word on the IC50: it is the point on the concentration scale where inhibition reaches its midpoint.

Sequence of LRRK2 (Q5S007 970-2527 limits assumed): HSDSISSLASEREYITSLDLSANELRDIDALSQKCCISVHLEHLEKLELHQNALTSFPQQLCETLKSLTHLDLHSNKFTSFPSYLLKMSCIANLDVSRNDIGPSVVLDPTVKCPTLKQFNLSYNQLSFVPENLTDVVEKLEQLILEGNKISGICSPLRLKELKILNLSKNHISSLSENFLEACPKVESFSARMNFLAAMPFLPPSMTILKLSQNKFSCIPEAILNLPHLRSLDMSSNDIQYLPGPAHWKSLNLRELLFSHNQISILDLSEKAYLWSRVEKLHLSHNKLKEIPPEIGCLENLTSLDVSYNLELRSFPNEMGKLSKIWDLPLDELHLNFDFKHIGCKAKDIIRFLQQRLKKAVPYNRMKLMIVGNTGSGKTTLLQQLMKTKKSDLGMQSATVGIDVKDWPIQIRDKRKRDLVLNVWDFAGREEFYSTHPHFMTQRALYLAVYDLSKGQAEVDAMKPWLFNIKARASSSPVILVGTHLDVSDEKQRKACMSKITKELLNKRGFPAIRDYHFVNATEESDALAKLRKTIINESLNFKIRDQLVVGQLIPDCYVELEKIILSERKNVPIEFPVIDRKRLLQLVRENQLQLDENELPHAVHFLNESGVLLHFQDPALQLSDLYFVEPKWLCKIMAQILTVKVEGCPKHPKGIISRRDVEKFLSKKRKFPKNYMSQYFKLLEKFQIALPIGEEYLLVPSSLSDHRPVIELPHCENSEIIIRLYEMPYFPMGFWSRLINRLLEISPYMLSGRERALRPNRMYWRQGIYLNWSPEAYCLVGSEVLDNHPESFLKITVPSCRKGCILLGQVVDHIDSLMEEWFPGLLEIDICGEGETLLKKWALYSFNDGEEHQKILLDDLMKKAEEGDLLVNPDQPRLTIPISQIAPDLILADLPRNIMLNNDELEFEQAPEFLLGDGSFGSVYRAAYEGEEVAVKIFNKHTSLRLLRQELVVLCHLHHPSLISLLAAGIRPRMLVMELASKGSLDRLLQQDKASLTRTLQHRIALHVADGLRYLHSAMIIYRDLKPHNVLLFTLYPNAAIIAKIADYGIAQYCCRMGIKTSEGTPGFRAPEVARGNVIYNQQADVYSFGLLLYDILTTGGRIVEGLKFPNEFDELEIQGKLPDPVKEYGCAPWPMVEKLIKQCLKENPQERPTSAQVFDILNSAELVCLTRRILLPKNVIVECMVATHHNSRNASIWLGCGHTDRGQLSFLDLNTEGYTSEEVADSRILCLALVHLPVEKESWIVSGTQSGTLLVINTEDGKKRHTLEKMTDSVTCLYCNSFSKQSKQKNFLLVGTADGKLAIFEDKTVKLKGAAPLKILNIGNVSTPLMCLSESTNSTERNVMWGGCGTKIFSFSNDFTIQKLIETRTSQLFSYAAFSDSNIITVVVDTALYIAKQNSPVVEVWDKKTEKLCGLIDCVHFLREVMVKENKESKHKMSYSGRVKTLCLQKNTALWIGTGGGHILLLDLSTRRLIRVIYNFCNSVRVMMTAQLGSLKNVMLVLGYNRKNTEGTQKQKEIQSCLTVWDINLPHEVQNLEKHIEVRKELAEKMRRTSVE
Sequence of LRRK2 (G2019S) (Q5S007 970-2527 G2019S limits assumed): as the sequence (Q5S007 970-2527 limits assumed) above, with G1050S counted along it
T1 sequence (P49759 129-484 limits assumed): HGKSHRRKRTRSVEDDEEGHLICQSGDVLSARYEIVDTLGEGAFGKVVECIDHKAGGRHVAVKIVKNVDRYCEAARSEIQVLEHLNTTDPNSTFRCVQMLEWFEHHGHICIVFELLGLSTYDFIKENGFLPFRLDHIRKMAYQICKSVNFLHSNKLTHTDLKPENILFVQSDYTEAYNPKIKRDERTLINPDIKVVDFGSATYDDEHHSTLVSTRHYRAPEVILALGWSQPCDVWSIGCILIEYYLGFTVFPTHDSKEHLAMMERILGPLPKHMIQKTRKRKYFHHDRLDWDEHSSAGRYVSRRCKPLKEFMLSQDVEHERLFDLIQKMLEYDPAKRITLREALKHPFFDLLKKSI

Take `CCCNc1cc(Nc2ccc(S(=O)(=O)N3CCOCC3)cc2OC)nc2[nH]cc(C#N)c12` [Example 133, 6-((2-methoxy-4-(morpholinosulfonyl)phenyl)amino)-4-(propylamino)-1H-pyrrolo[2,3-b]pyridine-3-carbonitrile]: the GI50 is 51 to 100 nM in assay [1] and 101 to 300 nM in assay [2]. In addition, the IC50 in assay [3] was 301 to 1000 nM; in assay [4], 301 to 1000 nM; in assay [5], under 100 nM; in assay [6] it was 301 to 1000 nM.

Consider `CCNc1cc(Nc2ccc(S(=O)(=O)N3CCC(N4CCOCC4)CC3)cc2OC)nc2[nH]cc(C#N)c12` [Example 138, 4-(ethylamino)-6-((2-methoxy-4-((4-morpholinopiperidin-1-yl)sulfonyl)phenyl)amino)-1H-pyrrolo[2,3-b]pyridine-3-carbonitrile], for which the GI50 in assay [1] and in assay [2] was under 50 nM each time. Also, the IC50 in assay [3] was 301 to 1000 nM; in assay [4], 101 to 300 nM; in assay [5], under 100 nM; in assay [6] it was under 100 nM.

`COc1cc(S(=O)(=O)N2CCOCC2)ccc1Nc1cc(NCCS(C)(=O)=O)c2c(C#N)c[nH]c2n1` [Example 130, 6-((2-methoxy-4-(morpholinosulfonyl)phenyl)amino)-4-((2-(methylsulfonyl)ethyl)amino)-1H-pyrrolo[2,3-b]pyridine-3-carbonitrile]: the GI50 in assay [1] and in assay [2] was 301 to 1000 nM throughout. Besides, the IC50 in assay [3] was 301 to 1000 nM; in assay [4], 101 to 300 nM; in assay [5], under 100 nM; in assay [6] it was under 100 nM.

With `COCCNc1cc(Nc2ccc(S(=O)(=O)N3CCOCC3)cc2OC)nc2[nH]cc(C(F)(F)F)c12` [Example 195, N^6-(2-methoxy-4-(morpholinosulfonyl)phenyl)-N^4-(2-methoxyethyl)-3-(trifluoromethyl)-1H-pyrrolo[2,3-b]pyridine-4,6-diamine], the GI50 in assay [1] was in the range of 101 to 300 nM; in assay [2], 301 to 1000 nM. In addition, the IC50 in assay [3], in assay [4], in assay [5] and in assay [6] was 301 to 1000 nM in each case.

Take `COc1cc(S(=O)(=O)N2CCOCC2)ccc1Nc1cc(NCC(C)C)c2c(C(F)(F)F)c[nH]c2n1` [Example 189, N^4-isobutyl-N^6-(2-methoxy-4-(morpholinosulfonyl)phenyl)-3-(trifluoromethyl)-1H-pyrrolo[2,3-b]pyridine-4,6-diamine]: the GI50 in assay [1] and in assay [2] was 301 to 1000 nM in each case. Moreover, the IC50 in assay [3], in assay [4], in assay [5] and in assay [6] was 301 to 1000 nM throughout.

For the molecule `CCCNc1cc(Nc2ccc(S(=O)(=O)N3CCC(N4CCOCC4)CC3)cc2OC)nc2[nH]cc(C#N)c12` [Example 139, 6-((2-methoxy-4-((4-morpholinopiperidin-1-yl)sulfonyl)phenyl)amino)-4-(propylamino)-1H-pyrrolo[2,3-b]pyridine-3-carbonitrile], the concentration for 50% growth inhibition (GI50) in assay [1] and in assay [2] was under 50 nM in each case. The IC50 in assay [3] is 301 to 1000 nM; in assay [4] it was 301 to 1000 nM; in assay [5], under 100 nM; in assay [6], under 100 nM.

Consider `COc1cc(S(=O)(=O)N2CCC(N3CCOCC3)CC2)ccc1Nc1cc(NC2CC2)c2c(C#N)c[nH]c2n1` [Example 134, 4-(cyclopropylamino)-6-((2-methoxy-4-((4-morpholinopiperidin-1-yl)sulfonyl)phenyl)amino)-1H-pyrrolo[2,3-b]pyridine-3-carbonitrile], for which the GI50 in assay [1] and in assay [2] was under 50 nM in each case. Further, the IC50 in assay [3] is 101 to 300 nM; in assay [4], 301 to 1000 nM; in assay [5] it was under 100 nM; in assay [6], under 100 nM.

On to `COCCNc1cc(Nc2ccc(S(=O)(=O)N3CCOCC3)cc2OC)nc2[nH]cc(C#N)c12` [Example 129, 6-((2-methoxy-4-(morpholinosulfonyl)phenyl)amino)-4-((2-methoxyethyl)amino)-1H-pyrrolo[2,3-b]pyridine-3-carbonitrile], for which the GI50 in assay [1] is under 50 nM; in assay [2] it was 101 to 300 nM. In addition, the IC50 is 301 to 1000 nM in assay [3], 301 to 1000 nM in assay [4], under 100 nM in assay [5] and under 100 nM in assay [6].

On to `COCCNc1cc(Nc2ccc(S(=O)(=O)N3CCC(N4CCOCC4)CC3)cc2OC)nc2[nH]cc(C(F)(F)F)c12` [Example 197, N^6-(2-methoxy-4-((4-morpholinopiperidin-1-yl)sulfonyl)phenyl)-N^4-(2-methoxyethyl)-3-(trifluoromethyl)-1H-pyrrolo[2,3-b]pyridine-4,6-diamine], for which the GI50 lay within 101 to 300 nM in assay [1] and 301 to 1000 nM in assay [2]. Moreover, the IC50 in assay [3] was under 100 nM; in assay [4], 101 to 300 nM; in assay [5], under 100 nM; in assay [6], under 100 nM.

For the molecule `CCNc1cc(Nc2ccc(S(=O)(=O)N3CCOCC3)cc2OC)nc2[nH]cc(C(F)(F)F)c12` [Example 179, N^4-ethyl-N^6-(2-methoxy-4-(morpholinosulfonyl)phenyl)-3-(trifluoromethyl)-1H-pyrrolo[2,3-b]pyridine-4,6-diamine], the GI50 in assay [1] and in assay [2] was 301 to 1000 nM throughout. The IC50 in assay [3], in assay [4], in assay [5] and in assay [6] was 301 to 1000 nM throughout.

For the molecule `COc1cc(S(=O)(=O)N2CCC(N3CCOCC3)CC2)ccc1Nc1cc(NC2CC2)c2c(C(F)(F)F)c[nH]c2n1` [Example 188, N^4-cyclopropyl-N^6-(2-methoxy-4-((4-morpholinopiperidin-1-yl)sulfonyl)phenyl)-3-(trifluoromethyl)-1H-pyrrolo[2,3-b]pyridine-4,6-diamine 2,2,2-trifluoroacetate], the GI50 in assay [1] lay within 101 to 300 nM; in assay [2] it was 301 to 1000 nM. In addition, the IC50 in assay [3] is 301 to 1000 nM; in assay [4], 301 to 1000 nM; in assay [5] it was under 100 nM; in assay [6] it was 101 to 300 nM.

As to `CCCNc1cc(Nc2ccc(S(=O)(=O)N3CCOCC3)cc2OC)nc2[nH]cc(C(F)(F)F)c12` [Example 199, N^6-(2-methoxy-4-(morpholinosulfonyl)phenyl)-N^4-propyl-3-(trifluoromethyl)-1H-pyrrolo[2,3-b]pyridine-4,6-diamine], the GI50 in assay [1] and in assay [2] was 301 to 1000 nM throughout. Also, the IC50 in assay [3], in assay [4], in assay [5] and in assay [6] was 301 to 1000 nM each time.

As to `CCNc1cc(Nc2ccc(S(=O)(=O)N3CCOCC3)c3c2OCCO3)nc2[nH]cc(C(F)(F)F)c12` [Example 99, N^4-ethyl-N^6-(8-(morpholonosulfonyl)-2,3-dihydrobenzo[b] [1,4]dioxin-5-yl)-3-(trifluoromethyl)-1H-pyrrolo[2,3-b]pyridine-4,6-diamine], the GI50 in assay [1] and in assay [2] was 301 to 1000 nM each time. For the same molecule, the concentration for half-maximal inhibition (IC50) in assay [3], in assay [4], in assay [5] and in assay [6] was 301 to 1000 nM in each case.

Regarding `COC[C@@H](C)Nc1cc(Nc2ccc(S(=O)(=O)N3CCC(N4CCOCC4)CC3)cc2OC)nc2[nH]cc(C(F)(F)F)c12` [Example 196, (R)-N^6-(2-methoxy-4-((4-morpholinopiperidin-1-yl)sulfonyl)phenyl)-N^4-(1-methoxypropan-2-yl)-3-(trifluoromethyl)-1H-pyrrolo[2,3-b]pyridine-4,6-diamine], the concentration for 50% growth inhibition (GI50) in assay [1] was 101 to 300 nM; in assay [2], 301 to 1000 nM. In addition, the concentration for half-maximal inhibition (IC50) is 301 to 1000 nM in assay [3], 301 to 1000 nM in assay [4] and under 100 nM in assay [5].
